Results on 4 compounds are retold here after US7655643B2, “Antibacterial macrocycles with substituted biphenyl” (AiCuris GmbH & Co. KG, priority 2003, dated 2010).

Converted amounts (≈) assume the structure as drawn. Where two headings read alike, the source gives them in different places.

Assay [1] addresses S. aureus 133 Translation. In words: S. aureus in vitro transcription-translation assay (firefly luciferase, S30 extract). It is filed as biochemical. An excerpt:
In order to construct a reporter plasmid which can be used in an in vitro transcription -translation assay from S. aureus the plasmid pBESTluc (Promega Corporation, USA) is used. The E. coli tac promoter present in this plasmid in front of the firefly luciferase is replaced by the capA1 promoter with appropriate Shine-Dalgarno sequence from S. aureus. The primers CAPFor 5′-[…] -[…]-3′ and CAPRev 5′-[…]-3′ are used for this. The primer CAPFor contains the capA1 promoter, the ribosome binding site and the 5′ region of the luciferase gene. After PCR using pBESTluc as template it is possible to isolate a PCR product which contains the firefly luciferase gene with the fused capA1 promoter. This is, after restriction with ClaI and HindIII, ligated into the vector pBESTluc which has likewise been digested with ClaI and HindIII. The resulting plasmid pla can be replicated in E. coli and be used as template in the S. aureus in vitro transcription-translation assay.
Six liters of BHI medium are inoculated with a 250 ml overnight culture of a S. aureus strain and allowed to grow at 37° C. until the OD600 nm is 2-4. The cells are harvested by centrifugation and washed in 500 ml of cold buffer A (10 mM Tris acetate, pH 8.0, 14 mM magnesium acetate, 1 mM DTT, 1 M KCl). After renewed centrifugation, the cells are washed in 250 ml of cold buffer A with 50 mM KCl, and the resulting pellets are frozen at −20° C. for 60 min. The pellets are thawed on ice in 30 to 60 min and taken up to a total volume of 99 ml in buffer B (10 mM Tris acetate, pH 8.0, 20 mM magnesium acetate, 1 mM DTT, 50 mM KCl). 1.5 ml lysostaphin (0.8 mg/ml) in buffer B are introduced into 3 precooled centrifuge cups each and each mixed with 33 ml of the cell suspension. The samples are incubated at 37° C., shaking occasionally, for 45 to 60 min, before 150 μl of a 0.5 M DTT solution are added. The lysed cells are centrifuged at 30 000×g and 4° C. for 30 min. The cell pellet is taken up in buffer B and then centrifuged again under the same conditions, and the collected supernatants are combined. The supernatants are centrifuged again under the same conditions, and 0.25 volumes of buffer C (670 mM Tris acetate, pH 8.0, 20 mM magnesium acetate, 7 mM Na3 phosphoenolpyruvate, 7 mM DTT, 5.5 mM ATP, 70 μM amino acids (complete from Promega), 75 μg of pyruvate kinase (Sigma, Germany)/ml are added to the upper ⅔ of the supernatant. The samples are incubated at 37° C. for 30 min. The supernatants are dialysed against 21 of dialysis buffer (10 mM Tris acetate, pH 8.0, 14 mM magnesium acetate, 1 mM DTT, 60 mM potassium acetate) in a dialysis tube with a 3500 Da cut-off with one buffer change at 4° C. overnight. The dialysate is concentrated to a protein concentration of about 10 mg/ml by covering the dialysis tube with cold PEG 8000 powder (Sigma, Germany) at 4° C. The S30 extracts can be stored in aliquots at −70° C.
Inhibition of protein biosynthesis of the compounds can be shown in an in vitro transcription-translation assay. The assay is based on the cell-free transcription and translation of firefly luciferase using the reporter plasmid pla as template and cell-free S30 extracts obtained from S. aureus. The activity of the resulting luciferase can be detected by luminescence measurement.
The amount of S30 extract or plasmid plato be employed must be tested anew for each preparation in order to ensure an optimal concentration in the assay. 3 μl of the substance to be tested, dissolved in 5% DMSO, are introduced into an MTP. Then 10 μl of a suitably concentrated plasmid solution p1 a are added. Then 46 μl of a mixture of 23 μl of premix (500 mM Potassium acetate, 87.5 mM Tris acetate, pH 8.0, 67.5 mM ammonium acetate, 5 mM DTT, 50 μg of folic acid/ml, 87.5 mg of PEG 8000/ml, 5 mM ATP, 1.25 mM each NTP, 20 μM each amino acid, 50 mM PEP (Na3 salt), 2.5 mM cAMP, 250 μg each E. coli tRNA/ml) and 23 μl of a suitable amount of S. aureus S30 extract are added and mixed. […]

The next assay relates to E. faecium L4001. In words: MIC, liquid dilution test (96-well microtitre plate). The format is cell-based, Enterococcus faecium. The method, then: The minimum inhibitory concentration (MIC) is the minimum concentration of an antibiotic with which the growth of a test microbe is inhibited over 18-24 h. The inhibitor concentration can in these cases be determined by standard microbiological methods (see, for example, The National Committee for Clinical Laboratory Standards. Methods for dilution antimicrobial susceptibility tests for bacteria that grow aerobically; approved standard-fifth edition. NCCLS document M7-A5 [ISBN 1-56238-394-9]. NCCLS, 940 West Valley Road, Suite 1400, Wayne, Pa. 19087-1898 USA, 2000). The MIC of the compounds of the invention is determined in the liquid dilution test on the 96-well microtitre plate scale. The bacterial microbes are cultivated in a minimal medium (18.5 mM Na2HPO4, 5.7 mM KH2PO4, 9.3 mM NH4Cl, 2.8 mM MgSO4, 17.1 mM NaCl, 0.033 μg/ml thiamine hydrochloride, 1.2 μg/ml nicotinic acid, 0.003 μg/ml biotin, 1% glucose, 25 μg/ml of each proteinogenic amino acid with the exception of phenylalanine; [H.-P. Kroll; unpublished]) with addition of 0.4% BH broth (test medium). In the case of Enterococcus faecium L4001, heat-inactivated fetal calf serum (FCS; GibcoBRL, Germany) is added to the test medium in a final concentration of 10%. Overnight cultures of the test microbes are diluted to an OD578 of 0.001(to 0.01 in the case of enterococci) in fresh test medium, and incubated 1:1 with dilutions of the test substances (1:2 dilution steps) in test medium (200 μl final volume). The cultures are incubated at 37° C. for 18-24 hours; enterococci in the presence of 5% CO2.
The lowest substance concentration in each case at which bacterial growth was no longer visible is defined as the MIC. […] The compounds show a graded antibacterial effect against most of the test microbes.

Setting [2] is: Enterococcus faecium, L4001, liquid dilution, test medium with 10% FCS, 5% CO2, 18-24 h, read-out: MIC E. faecium L4001.

The IC50 is the concentration at which inhibition is half-maximal. A low value points to higher potency. The MIC is the lowest concentration that inhibits growth of the organism. As for `NC[C@H](O)C[C@@H]1NC(=O)[C@@H](N)Cc2cc(ccc2O)-c2ccc(O)c(c2)C[C@@H](C(=O)O)NC1=O` [Biphenomycin B, biphenomycin B, reference compound], the IC50 in assay [1] (Table A) and in assay [1] (Table B) was 1500 nM each time. Also, the MIC in the assay on E. faecium L4001 (liquid dilution, test medium with 10% FCS, 5% CO2, 18-24 h, read-out: MIC E. faecium L4001) is reported as above 25 µM.

Consider `CN1C(=O)[C@H](C[C@@H](O)CN)NC(=O)[C@@H](N)Cc2cc(ccc2O)-c2ccc(Cl)c(c2)C[C@H]1C(=O)NCC(O)CN` (stereo partly drawn) [Example 9], for which the IC50 in assay [1] (Table A) and in assay [1] (Table B) was 300 nM in each case. In addition, in the assay on E. faecium L4001 (setting [2]), the MIC was found to be 11 µM (≈ 6.35 µg/mL).

With `NCCNC(=O)[C@@H]1Cc2cc(ccc2F)-c2ccc(O)c(c2)C[C@H](N)C(=O)N[C@@H](C[C@@H](O)CN)C(=O)N1` [Example 12], the IC50 in assay [1] (Table A) and in assay [1] (Table B) was 800 nM throughout. For the same compound, the MIC in the assay on E. faecium L4001 (setting [2]) is 20 µM (≈ 10.3 µg/mL).

As for `NCCNC(=O)[C@@H]1Cc2cccc(c2)-c2ccc(O)c(c2)C[C@H](N)C(=O)N[C@@H](C[C@@H](O)CN)C(=O)N1` [Example 36, (8S,11S,14S)-14-Amino-N-(2-aminoethyl)-11-[(2R) -3-amino-2-hydroxypropyl]-17-hydroxy-10,13-dioxo-9,12-diazatricyclo-[14.3.1.1^2,6]henicosa-1(20),2(21),3,5,16,18-hexaene-8-carboxamide tri(hydrotrifluoroacetate)], the IC50 in assay [1] (Table A) and in assay [1] (Table B) was 360 nM throughout. Moreover, the MIC in the assay with E. faecium L4001 (Enterococcus faecium, L4001, read-out: MIC E. faecium L4001) is above 25 µM.
